Earlier results, collected in patent US20170072004A1, “COMPOSITIONS AND METHODS FOR IMPROVING THE BIOAVAILABILITY OF CURCUMINOIDS” (priority 2015, published 2017).

Details: rats, oral curcumin 2 g/kg, co-administration of piperine

- Increase in systemic bioavailability following oral dosing: ≤ 154%
Compound: COc1cc(/C=C/C(=O)CC(=O)/C=C/c2ccc(O)c(OC)c2)ccc1O [curcumin, diferuloylmethane]
